Activity calls are given as the source filed them. No cut-off for these calls is given here.
Tests used:
[1] = biological target: Human immunodeficiency virus type 1 integrase (Human immunodeficiency virus 1) (UniProt Q7ZJM1); assay: Inhibition of HIV1 integrase strand transfer activity at 200 uM
[2] = biological target: Human immunodeficiency virus type 1 integrase (Human immunodeficiency virus 1, UniProt Q7ZJM1); assay: Inhibition of HIV1 integrase strand transfer activity
Human immunodeficiency virus type 1 integrase, sequence (Q7ZJM1 whole entry): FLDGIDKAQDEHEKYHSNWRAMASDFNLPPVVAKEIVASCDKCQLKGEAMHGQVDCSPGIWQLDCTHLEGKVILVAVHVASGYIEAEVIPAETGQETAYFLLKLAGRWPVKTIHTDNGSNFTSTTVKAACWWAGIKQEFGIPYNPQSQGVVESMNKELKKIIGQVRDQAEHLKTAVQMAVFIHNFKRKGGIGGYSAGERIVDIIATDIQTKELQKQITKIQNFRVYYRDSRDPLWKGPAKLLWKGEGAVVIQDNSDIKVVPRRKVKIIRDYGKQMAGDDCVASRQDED

Human immunodeficiency virus type 1 integrase (Human immunodeficiency virus 1), sequence (Q7ZJM1 as listed by the source): as the sequence (Q7ZJM1 whole entry) above

Row | Activity [1] | IC50 [2] [µM] | SMILES
1 | inactive |  | CCCCCC[C@@H](C)C1=C(O)C(=O)[C@@H]2[C@H](O)[C@H](C)C[C@H](O)[C@H]2[C@]1(C)C(=O)CCO
2 |  | 20 | CCCCCC[C@@H](C)C1=C(O)C(=O)[C@@H]2[C@H](O)[C@H](C)C[C@H](O)[C@H]2[C@]1(C)C(=O)/C=C\O [AUSTRALIFUNGIN]
3 |  | 20 | CCCC[C@@H](C)C1=C(O)C(=O)[C@@H]2C[C@H](C)C[C@H](C(=O)O)[C@H]2[C@]1(C)C(=O)CCO [CYTOSPORIC ACID]
